# Experimental data taken from patent publication US20260176320A1, “MODULATORS OF G-PROTEIN COUPLED RECEPTORS” (priority 2018, published 2026).
# Where two headings read alike, the source gives them in different places.
# What was measured:
# [1] = target: GLP-1R (Homo sapiens, UniProt P43220); experiment: HitHunter cAMP assay (GLP-1R); type: cell-based; conditions: cAMP; for Emax: read-out: (Emax) GLP-1R
# Procedure, shortened: (§1)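 cAMP accumulation read by luminescent HitHunter immunocompetition after 30 min room-temperature agonist stimulation. Agonists tested as 22-point twofold dilutions, in duplicate, on 10,000 cells/well in HBSS containing 625 μM IBMX, 10 mM HEPES and 0.2% BSA.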
# [2] = target: T1, GIP-R (Homo sapiens, UniProt P48546); experiment: HitHunter cAMP assay (GIP-R); type: cell-based; conditions: cAMP; for Emax: read-out: (Emax) GIP-R
# T1 sequence (P48546 22-466): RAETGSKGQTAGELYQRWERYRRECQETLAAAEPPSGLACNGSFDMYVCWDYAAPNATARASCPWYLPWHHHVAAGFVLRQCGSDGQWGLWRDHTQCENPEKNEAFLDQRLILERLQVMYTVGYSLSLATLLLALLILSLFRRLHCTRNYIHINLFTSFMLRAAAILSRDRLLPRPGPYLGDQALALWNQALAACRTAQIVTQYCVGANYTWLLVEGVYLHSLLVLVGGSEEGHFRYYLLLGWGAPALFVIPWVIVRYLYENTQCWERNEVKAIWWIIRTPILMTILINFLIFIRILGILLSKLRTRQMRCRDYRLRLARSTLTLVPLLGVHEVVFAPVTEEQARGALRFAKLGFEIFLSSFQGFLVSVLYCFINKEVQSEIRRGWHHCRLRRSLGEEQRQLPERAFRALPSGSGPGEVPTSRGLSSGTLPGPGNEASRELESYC
# Procedure, shortened: as §1
# [3] = Table 3, read-out: EC50 GLP-1R/nM
# [4] = Table 3A, read-out: EC50 GLP-1R/nM
# [5] = Table 3, read-out: EC50 GIP-R/nM
# [6] = Table 3A, read-out: EC50 GIP-R/nM
# GLP-1R, sequence (P43220 24-463): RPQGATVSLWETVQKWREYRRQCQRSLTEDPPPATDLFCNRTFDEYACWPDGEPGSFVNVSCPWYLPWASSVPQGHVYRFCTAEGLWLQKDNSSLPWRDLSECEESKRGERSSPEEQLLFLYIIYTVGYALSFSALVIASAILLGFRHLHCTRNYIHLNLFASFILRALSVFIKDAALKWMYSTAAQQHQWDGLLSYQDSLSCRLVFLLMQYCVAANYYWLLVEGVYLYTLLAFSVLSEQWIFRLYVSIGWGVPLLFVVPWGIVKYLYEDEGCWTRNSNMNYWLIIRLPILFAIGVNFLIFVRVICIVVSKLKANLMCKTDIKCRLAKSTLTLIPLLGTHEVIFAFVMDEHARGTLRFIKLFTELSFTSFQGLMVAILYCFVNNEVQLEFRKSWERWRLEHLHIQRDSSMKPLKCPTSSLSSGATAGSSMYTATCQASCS
SMILES,"EC50 ([1]; EC50 GLP-1R/nM, Table 3) [nM]","EC50 ([1]; EC50 GLP-1R/nM, Table 3A) [nM]",Emax ([1]; Table 3) [%],Emax ([1]; Table 3A) [%],"EC50 ([2]; EC50 GIP-R/nM, Table 3) [nM]","EC50 ([2]; EC50 GIP-R/nM, Table 3A) [nM]",Emax ([2]; Table 3) [%],Emax ([2]; Table 3A) [%],"EC50 [1, 3] [nM]","EC50 [1, 4] [nM]","EC50 [2, 5] [nM]","EC50 [2, 6] [nM]"
CCCCCCCCCCCCCCCC(=O)N[C@@H](CCC(=O)NCCCC[C@H](NC(=O)[C@H](CO)NC(=O)[C@@H]1CCCN1C(=O)[C@@H]1CCCN1C(=O)[C@@H]1CCCN1C(=O)[C@H](C)NC(=O)CNC(=O)[C@H](CO)NC(=O)[C@H](CO)NC(=O)[C@@H]1CCCN1C(=O)CNC(=O)CNC(=O)[C@H](C)NC(=O)[C@H](CC(C)C)NC(=O)[C@H](CC(C)C)NC(=O)[C@H](Cc1c[nH]c2ccccc12)NC(=O)[C@H](CC(N)=O)NC(=O)[C@@H](NC(=O)[C@H](Cc1ccccc1)NC(=O)[C@H](CCC(=O)O)NC(=O)C(C)(C)NC(=O)[C@H](C)NC(=O)[C@H](C)NC(=O)[C@H](CCC(N)=O)NC(=O)[C@H](CCCCN)NC(=O)[C@H](CC(=O)O)NC(=O)[C@H](CC(C)C)NC(=O)[C@H](Cc1ccc(O)cc1)NC(=O)[C@@H](NC(=O)[C@H](CO)NC(=O)[C@H](Cc1ccc(O)cc1)NC(=O)[C@H](CC(=O)O)NC(=O)[C@H](CO)NC(=O)[C@@H](NC(=O)[C@H](Cc1ccccc1)NC(=O)[C@@H](NC(=O)CNC(=O)[C@H](CCC(=O)O)NC(=O)CSCC(=O)NCCN1C(=O)CC2(CCCC2)C1=O)[C@@H](C)O)[C@@H](C)O)[C@@H](C)CC)C(C)C)C(N)=O)C(=O)O [Compound 102],1 to 10,1 to 10,104,104,10 to 100,10 to 100,34,34,–,–,–,–
CCCCCCCCCCCCCCCC(=O)N[C@@H](CCC(=O)NCCCC[C@H](NC(=O)[C@H](CO)NC(=O)[C@@H]1CCCN1C(=O)[C@@H]1CCCN1C(=O)[C@@H]1CCCN1C(=O)[C@H](C)NC(=O)CNC(=O)[C@H](CO)NC(=O)[C@H](CO)NC(=O)[C@@H]1CCCN1C(=O)CNC(=O)CNC(=O)[C@H](C)NC(=O)[C@H](CC(C)C)NC(=O)[C@H](CC(C)C)NC(=O)[C@H](Cc1c[nH]c2ccccc12)NC(=O)[C@H](CC(N)=O)NC(=O)[C@@H](NC(=O)[C@H](Cc1ccccc1)NC(=O)[C@H](CCC(=O)O)NC(=O)C(C)(C)NC(=O)[C@H](C)NC(=O)[C@H](C)NC(=O)[C@H](CCC(N)=O)NC(=O)[C@H](CCCCN)NC(=O)[C@H](CC(=O)O)NC(=O)[C@H](CC(C)C)NC(=O)[C@H](Cc1ccc(O)cc1)NC(=O)[C@@H](NC(=O)[C@H](CO)NC(=O)[C@H](Cc1ccc(O)cc1)NC(=O)[C@H](CC(=O)O)NC(=O)[C@H](CO)NC(=O)[C@@H](NC(=O)[C@H](Cc1ccccc1)NC(=O)[C@@H](NC(=O)CNC(=O)[C@H](CCC(=O)O)NC(=O)CSCC(=O)NCCN1C(=O)c2ccc(C)cc2C1=O)[C@@H](C)O)[C@@H](C)O)[C@@H](C)CC)C(C)C)C(N)=O)C(=O)O [Compound 247],–,0.1 to 1,–,102,–,< 0.1,–,110,–,–,–,–
CCCCCCCCCCCCCCCC(=O)N[C@@H](CCC(=O)NCCCC[C@H](NC(=O)[C@H](CO)NC(=O)[C@@H]1CCCN1C(=O)[C@@H]1CCCN1C(=O)[C@@H]1CCCN1C(=O)[C@H](C)NC(=O)CNC(=O)[C@H](CO)NC(=O)[C@H](CO)NC(=O)[C@@H]1CCCN1C(=O)CNC(=O)CNC(=O)[C@H](C)NC(=O)[C@H](CC(C)C)NC(=O)[C@H](CC(C)C)NC(=O)[C@H](Cc1c[nH]c2ccccc12)NC(=O)[C@H](CC(N)=O)NC(=O)[C@@H](NC(=O)[C@H](Cc1ccccc1)NC(=O)[C@H](CCC(=O)O)NC(=O)C(C)(C)NC(=O)[C@H](C)NC(=O)[C@H](C)NC(=O)[C@H](CCC(N)=O)NC(=O)[C@H](CCCCN)NC(=O)[C@H](CC(=O)O)NC(=O)[C@H](CC(C)C)NC(=O)[C@H](Cc1ccc(O)cc1)NC(=O)[C@@H](NC(=O)[C@H](CO)NC(=O)[C@H](Cc1ccc(O)cc1)NC(=O)[C@H](CC(=O)O)NC(=O)[C@H](CO)NC(=O)[C@@H](NC(=O)[C@H](Cc1ccccc1)NC(=O)[C@@H](NC(=O)CNC(=O)[C@H](CCC(=O)O)NC(=O)CSCC(=O)NCCN1CC[C@@H](O)C1=O)[C@@H](C)O)[C@@H](C)O)[C@@H](C)CC)C(C)C)C(N)=O)C(=O)O [Compound 47],–,–,100,100,–,–,24,24,< 0.1,< 0.1,1 to 10,10 to 100
CCCCCCCCCCCCCCCC(=O)N[C@@H](CCC(=O)NCCCC[C@H](NC(=O)[C@H](CO)NC(=O)[C@@H]1CCCN1C(=O)[C@@H]1CCCN1C(=O)[C@@H]1CCCN1C(=O)[C@H](C)NC(=O)CNC(=O)[C@H](CO)NC(=O)[C@H](CO)NC(=O)[C@@H]1CCCN1C(=O)CNC(=O)CNC(=O)[C@H](C)NC(=O)[C@H](CC(C)C)NC(=O)[C@H](CC(C)C)NC(=O)[C@H](Cc1c[nH]c2ccccc12)NC(=O)[C@H](CC(N)=O)NC(=O)[C@@H](NC(=O)[C@H](Cc1ccccc1)NC(=O)[C@H](CCC(=O)O)NC(=O)C(C)(C)NC(=O)[C@H](C)NC(=O)[C@H](C)NC(=O)[C@H](CCC(N)=O)NC(=O)[C@H](CCCCN)NC(=O)[C@H](CC(=O)O)NC(=O)[C@H](CC(C)C)NC(=O)[C@H](Cc1ccc(O)cc1)NC(=O)[C@@H](NC(=O)[C@H](CO)NC(=O)[C@H](Cc1ccc(O)cc1)NC(=O)[C@H](CC(=O)O)NC(=O)[C@H](CO)NC(=O)[C@@H](NC(=O)[C@H](Cc1ccccc1)NC(=O)[C@@H](NC(=O)CNC(=O)[C@H](CCC(=O)O)NC(=O)CSCC(=O)NCCN1C(=O)C2=C(CCCC2)C1=O)[C@@H](C)O)[C@@H](C)O)[C@@H](C)CC)C(C)C)C(N)=O)C(=O)O [Compound 100],10 to 100,10 to 100,95,95,1 to 10,1 to 10,100,100,–,–,–,–
CCCCCCCCCCCCCCCC(=O)N[C@@H](CCC(=O)NCCCC[C@H](NC(=O)[C@H](CO)NC(=O)[C@@H]1CCCN1C(=O)[C@@H]1CCCN1C(=O)[C@@H]1CCCN1C(=O)[C@H](C)NC(=O)CNC(=O)[C@H](CO)NC(=O)[C@H](CO)NC(=O)[C@@H]1CCCN1C(=O)CNC(=O)CNC(=O)[C@H](C)NC(=O)[C@H](CC(C)C)NC(=O)[C@H](CC(C)C)NC(=O)[C@H](Cc1c[nH]c2ccccc12)NC(=O)[C@H](CC(N)=O)NC(=O)[C@@H](NC(=O)[C@H](Cc1ccccc1)NC(=O)[C@H](CCC(=O)O)NC(=O)C(C)(C)NC(=O)[C@H](C)NC(=O)[C@H](C)NC(=O)[C@H](CCC(N)=O)NC(=O)[C@H](CCCCN)NC(=O)[C@H](CC(=O)O)NC(=O)[C@H](CC(C)C)NC(=O)[C@H](Cc1ccc(O)cc1)NC(=O)[C@@H](NC(=O)[C@H](CO)NC(=O)[C@H](Cc1ccc(O)cc1)NC(=O)[C@H](CC(=O)O)NC(=O)[C@H](CO)NC(=O)[C@@H](NC(=O)[C@H](Cc1ccccc1)NC(=O)[C@@H](NC(=O)CNC(=O)[C@H](CCC(=O)O)NC(=O)CSCC(=O)NCCN1C[C@@H](O)CC1=O)[C@@H](C)O)[C@@H](C)O)[C@@H](C)CC)C(C)C)C(N)=O)C(=O)O [Compound 45],–,–,100,100,–,–,42,42,0.1 to 1,0.1 to 1,1 to 10,1 to 10
